From patent US20250346600A1, “TRICYCLIC DERIVATIVES AND RELATED USES” (MOMA Therapeutics, Inc., priority 2023, published 2025)
Read-outs that look alike come from different tables or passages of the source.

Tests used:
[1] = molecular target: T1, Full length WRN protein (aa 2-1432) (Homo sapiens (Human), UniProt Q14191); assay: WRN ATPase ADP-Glo biochemical assay, Assay Format B (100 μM ATP); conditions: 0.25 nM WRN, 100 nM C6.18 ssDNA, 60 min preincubation, read-out: ATPase ADPGlo AC50 (uM)- Assay Format B
[2] = molecular target: T1, Full length WRN protein (aa 2-1432); assay: WRN ATPase ADP-Glo biochemical assay, Assay Format A (10 μM ATP); conditions: 0.25 nM WRN, 100 nM C6.18 ssDNA, 30 min preincubation, read-out: ATPase ADPGlo AC50 (uM)- Assay Format A
Outline: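 ADP-Glo luminescence measured hydrolysis of ATP by purified, baculovirus-expressed N-terminally tagged full-length WRN. Enzyme (0.5 nM) was preincubated 30 min with compound, then 200 nM ssDNA C6.18 plus 20 μM ATP were added (pre-mix levels) for 30 min at RT. IC50s come from four-parameter fits, geometric mean of at least two trials.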

HCT116 cells = assay: HCT116 (MSI) 7 day viability, CellTiter Glo; format: cell-based; conditions: 7 days, read-out: HCT116 (MSI) Viability 7 Day Abs AC50
Outline: (§1)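 10 mM DMSO stocks serially diluted 3-fold, 10 steps; cells added (HCT116 50/well, HT29 500/well); 7 d, 37 °C, 5% CO2; CellTiter Glo 20 min RT; luminescence.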

HT29 cells = assay: HT29 (MSS) 7 day viability, CellTiter Glo; format: cell-based; conditions: 7 days, read-out: HT29 (MSS) Viability 7 Day CTGAbs AC50
Outline: as §1

T1 sequence (Q14191 2-1432): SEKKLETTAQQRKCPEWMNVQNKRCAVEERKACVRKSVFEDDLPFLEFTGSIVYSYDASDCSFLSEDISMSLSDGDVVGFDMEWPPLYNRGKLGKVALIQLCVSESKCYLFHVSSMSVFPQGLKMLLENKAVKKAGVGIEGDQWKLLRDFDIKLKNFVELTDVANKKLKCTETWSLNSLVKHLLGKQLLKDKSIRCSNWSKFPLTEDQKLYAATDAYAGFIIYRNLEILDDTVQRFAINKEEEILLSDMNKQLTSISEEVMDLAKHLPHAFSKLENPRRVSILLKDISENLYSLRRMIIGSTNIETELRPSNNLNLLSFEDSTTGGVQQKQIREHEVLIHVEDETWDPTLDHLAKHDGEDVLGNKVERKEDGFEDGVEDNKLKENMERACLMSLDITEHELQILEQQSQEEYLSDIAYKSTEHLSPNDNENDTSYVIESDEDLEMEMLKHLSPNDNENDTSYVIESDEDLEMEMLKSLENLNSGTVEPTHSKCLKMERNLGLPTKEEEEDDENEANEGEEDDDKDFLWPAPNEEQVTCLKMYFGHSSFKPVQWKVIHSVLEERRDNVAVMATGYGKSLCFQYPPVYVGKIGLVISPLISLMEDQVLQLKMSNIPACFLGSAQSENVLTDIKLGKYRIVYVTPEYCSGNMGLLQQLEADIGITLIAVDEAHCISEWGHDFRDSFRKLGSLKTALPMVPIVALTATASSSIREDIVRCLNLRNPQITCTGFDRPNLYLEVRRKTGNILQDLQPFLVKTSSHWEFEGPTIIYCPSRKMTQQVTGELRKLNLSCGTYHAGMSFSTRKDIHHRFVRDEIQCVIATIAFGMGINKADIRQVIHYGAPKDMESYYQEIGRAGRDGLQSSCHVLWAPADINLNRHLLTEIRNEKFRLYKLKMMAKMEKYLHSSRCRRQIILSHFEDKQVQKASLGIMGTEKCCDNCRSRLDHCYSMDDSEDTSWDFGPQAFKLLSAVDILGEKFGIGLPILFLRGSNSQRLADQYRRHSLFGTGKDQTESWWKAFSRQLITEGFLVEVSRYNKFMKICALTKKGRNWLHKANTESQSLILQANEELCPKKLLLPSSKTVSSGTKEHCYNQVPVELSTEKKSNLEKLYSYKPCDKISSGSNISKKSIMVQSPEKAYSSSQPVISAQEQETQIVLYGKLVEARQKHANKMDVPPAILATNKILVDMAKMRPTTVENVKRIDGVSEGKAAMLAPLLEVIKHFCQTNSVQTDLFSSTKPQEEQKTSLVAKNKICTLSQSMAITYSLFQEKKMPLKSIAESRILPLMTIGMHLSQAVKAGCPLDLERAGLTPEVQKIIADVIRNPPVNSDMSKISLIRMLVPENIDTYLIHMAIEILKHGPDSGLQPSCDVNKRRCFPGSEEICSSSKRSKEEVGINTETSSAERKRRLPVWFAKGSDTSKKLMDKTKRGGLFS

AC50 [1] | AC50 [2] | SMILES | AC50 (HCT116 cells) | AC50 (HT29 cells) | AC50 (HCT116 cells; Homo sapiens, HCT-116, 168 h) | AC50 (HT29 cells; Homo sapiens, HT-29, 168 h)
> 0.055 µM | 0.005 to 0.015 µM | C=CC(=O)N1CCc2nn(-c3ccc(C(C)C)cc3)c3c2C(C1)N(C(=O)c1ccc(Br)c2ncn(CC4CCO4)c12)CC3 (centres unmarked) [Compound 83, 1-(5-(4-bromo-1-((oxetan-2-yl)methyl)-1H-benzo[d]imidazole-7-carbonyl)-2-(4-isopropylphenyl)-2,3,4,5,5a,6,8,9-octahydro-7H-1,2,5,7-tetraazabenzo[cd]azulen-7-yl)prop-2-en-1-one] | 0.5 to 1 µM | > 3 µM |  | 
0.005 to 0.015 µM | < 0.0015 µM | C=CC(=O)N1CCOc2nn(-c3ccc(C45CC(C4)C5)cc3)c3c2C(C1)N(C(=O)c1ccc(Br)c2[nH]cnc12)CC3 (centres unmarked) [Compound 43, 1-(2-(4-(bicyclo[1.1.1]pentan-1-yl)phenyl)-5-(7-bromo-1H-benzo[d]imidazole-4-carbonyl)-2,3,4,5,5a,6,8,9-octahydro-7H-10-oxa-1,2,5,7-tetraazacycloocta[cd]inden-7-yl)prop-2-en-1-one] |  |  | 0.001 to 0.1 µM | > 3 µM
0.0015 to 0.005 µM | < 0.0015 µM | C=CC(=O)N1CCc2nn(-c3ccc(C4CCC4)cc3O)c3c2C(C1)N(C(=O)c1cnc(C(F)(F)F)c(F)c1N)CC3 (centres unmarked) [Compound 134, 1-(5-(4-amino-5-fluoro-6-(trifluoromethyl)nicotinoyl)-2-(4-cyclobutyl-2-hydroxyphenyl)-2,3,4,5,5a,6,8,9-octahydro-7H-1,2,5,7-tetraazabenzo[cd]azulen-7-yl)prop-2-en-1-one] |  |  | 0.001 to 0.1 µM | > 3 µM
< 0.0015 µM | > 0.055 µM | C=CC(=O)N1CCc2nn(Cc3ccccc3)c3c2C(C1)N(C(=O)c1cnc(C(F)(F)F)cc1N)CC3 (centres unmarked) [Compound 201, 1-(5-(4-amino-6-(trifluoromethyl)nicotinoyl)-2-benzyl-2,3,4,5,5a,6,8,9-octahydro-7H-1,2,5,7-tetraazabenzo[cd]azulen-7-yl)prop-2-en-1-one] |  |  | > 1 µM | > 3 µM
0.005 to 0.015 µM | < 0.0015 µM | C=CC(=O)N1CCc2nn(-c3ccc(C(C)C)cc3O)c3c2C(C1)N(C(=O)c1cnc(C(F)(F)F)c(O)c1)CC3 (centres unmarked) [Compound 21, 1-(2-(2-hydroxy-4-isopropylphenyl)-5-(5-hydroxy-6-(trifluoromethyl)nicotinoyl)-2,3,4,5,5a,6,8,9-octahydro-7H-1,2,5,7-tetraazabenzo[cd]azulen-7-yl)prop-2-en-1-one] |  |  | 0.001 to 0.1 µM | > 3 µM
0.0015 to 0.005 µM | < 0.0015 µM | C=CC(=O)N1CCc2nn(-c3ccc(C4CC4)cc3O)c3c2C(C1)N(C(=O)c1nnc(C(F)(F)F)cc1N)CC3 (centres unmarked) [Compound 248, 1-(5-(4-amino-6-(trifluoromethyl)pyridazine-3-carbonyl)-2-(4-cyclopropyl-2-hydroxyphenyl)-2,3,4,5,5a,6,8,9-octahydro-7H-1,2,5,7-tetraazabenzo[cd]azulen-7-yl)prop-2-en-1-one] |  |  | 0.001 to 0.1 µM | > 3 µM
0.015 to 0.055 µM | 0.0015 to 0.005 µM | C=CC(=O)N1CCc2nn(-c3ccc(C4CC4)cc3)c3c2C(C1)N(C(=O)c1ccc(C#N)c2[nH]cnc12)CC3 (centres unmarked) [Compound 18, 4-(7-acryloyl-2-(4-cyclopropylphenyl)-3,4,5,5a,6,7,8,9-octahydro-2H-1,2,5,7-tetraazabenzo[cd]azulene-5-carbonyl)-1H-benzo[d]imidazole-7-carbonitrile] |  |  | 0.001 to 0.1 µM | > 3 µM
0.0015 to 0.005 µM | < 0.0015 µM | C=CC(=O)N1CCc2nn(-c3ccc(C4CC4)cc3)c3c2C(C1)N(C(=O)c1cnc(C(C)(F)F)cc1N)CC3 (centres unmarked) [Compound 183, 1-(5-(4-amino-6-(1,1-difluoroethyl)nicotinoyl)-2-(4-cyclopropylphenyl)-2,3,4,5,5a,6,8,9-octahydro-7H-1,2,5,7-tetraazabenzo[cd]azulen-7-yl)prop-2-en-1-one] |  |  | 0.001 to 0.1 µM | > 3 µM
